The numbers were not newly measured in US20180311177A1, “Therapeutic Nanoparticles Comprising A Therapeutic Agent and Methods of Making and Using Same” (Pfizer Inc., priority 2015, published 2018), which cites them from elsewhere.

Structures are written as SMILES.

Assay in data set [1]: not given
This is another data set of the same source.

As a reminder, the log P is a log measure of how a compound divides between an organic and an aqueous phase. Turning to `c1ccc(CNCCNCc2ccccc2)cc1` [N,N′-dibenzylethylenediamine], the “log P” value was 2.89. A word on the pKa: it is the negative logarithm of the acid dissociation constant. Consider `c1ccc(CCNCc2ccccc2)cc1` [N-(phenylmethyl)benzeneethanamine], for which the “log P” value is 3.54. For the same compound, the pKa in data set [1] is recorded as 9.88. Turning to `CCCCCCCCCCCCN` [dodecylamine], the “log P” value is reported as 4.25. Further, the pKa in data set [1] is given as 10.21.
